The subject of one experiment is CAL-51 cells. Description: CAL-51 Cell Proliferation Assay. Type of experiment: cell-based. As to conditions: for EC50: Homo sapiens, 120 hours incubation, 10-point dose response, 4-fold dilutions starting at 10 μM, Cell-Titer-Glo, read-out: CAL-51 Prolif EC50; for CAL-51 Prolif Ymin: minimal percent of DMSO control observed in the concentrations tested (Ymin-obs), 120 hours. Put shortly:
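EC50 comes from a four-parameter logistic fit of blank-corrected, DMSO-normalised CellTiter-Glo signal after 120 h growth (37 °C, 350 cells/well, RPMI complete medium). Compounds ran as 10-point 4-fold series starting at 10 μM, duplicate, 0.1% DMSO. Ymin-obs records the minimal percent of DMSO control observed.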

The target of a further experiment is T1, FAK (Homo sapiens, UniProt Q05397).
T1 construct: homozygous knock-in of a HiBiT tag (Promega Corporation, Madison, WI) to the C-terminus of the FAK gene in its natural genomic locus; endogenous in cells; host or cells: JHH-4-FAK-HiBiT clone d01 (CRISPR-Cas9 knock-in at the endogenous locus)
As to the kind of experiment: FAK-HiBiT Degradation Assay. Conditions: for DC50: JHH-4-FAK-HiBiT clone d01 cells, two hours incubation, 10-point dose response, 3-fold dilution starting at 1 μM, Nano-Glo HiBiT luminescence, read-out: FAK HiBiT EC50; for FAK HiBiT Ymin: lower limit of the four parameter fit (value A), Ymax derived using DMSO control, JHH-4-FAK-HiBiT cells, two hours. Type of experiment: cell-based. Put shortly:
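Degradation read out by HiBiT lytic luminescence after 2 h compound exposure (top concentration 1 μM, 3-fold, 10 points) in JHH-4 clone d01 bearing endogenous FAK-HiBiT knock-in. Four-parameter logistic fit gave EC50 and Ymin; DMSO wells defined Ymax.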
In general terms: With HiBiT, luminescence reflects the tagged protein that the partner subunit can reach.

Experimental findings from patent publication US20260078119A1, “DEGRADER COMPOUNDS AND USES THEREOF” (Bristol-Myers Squibb Company, priority 2024, published 2026) are described below.

T1 sequence (Q05397 whole entry): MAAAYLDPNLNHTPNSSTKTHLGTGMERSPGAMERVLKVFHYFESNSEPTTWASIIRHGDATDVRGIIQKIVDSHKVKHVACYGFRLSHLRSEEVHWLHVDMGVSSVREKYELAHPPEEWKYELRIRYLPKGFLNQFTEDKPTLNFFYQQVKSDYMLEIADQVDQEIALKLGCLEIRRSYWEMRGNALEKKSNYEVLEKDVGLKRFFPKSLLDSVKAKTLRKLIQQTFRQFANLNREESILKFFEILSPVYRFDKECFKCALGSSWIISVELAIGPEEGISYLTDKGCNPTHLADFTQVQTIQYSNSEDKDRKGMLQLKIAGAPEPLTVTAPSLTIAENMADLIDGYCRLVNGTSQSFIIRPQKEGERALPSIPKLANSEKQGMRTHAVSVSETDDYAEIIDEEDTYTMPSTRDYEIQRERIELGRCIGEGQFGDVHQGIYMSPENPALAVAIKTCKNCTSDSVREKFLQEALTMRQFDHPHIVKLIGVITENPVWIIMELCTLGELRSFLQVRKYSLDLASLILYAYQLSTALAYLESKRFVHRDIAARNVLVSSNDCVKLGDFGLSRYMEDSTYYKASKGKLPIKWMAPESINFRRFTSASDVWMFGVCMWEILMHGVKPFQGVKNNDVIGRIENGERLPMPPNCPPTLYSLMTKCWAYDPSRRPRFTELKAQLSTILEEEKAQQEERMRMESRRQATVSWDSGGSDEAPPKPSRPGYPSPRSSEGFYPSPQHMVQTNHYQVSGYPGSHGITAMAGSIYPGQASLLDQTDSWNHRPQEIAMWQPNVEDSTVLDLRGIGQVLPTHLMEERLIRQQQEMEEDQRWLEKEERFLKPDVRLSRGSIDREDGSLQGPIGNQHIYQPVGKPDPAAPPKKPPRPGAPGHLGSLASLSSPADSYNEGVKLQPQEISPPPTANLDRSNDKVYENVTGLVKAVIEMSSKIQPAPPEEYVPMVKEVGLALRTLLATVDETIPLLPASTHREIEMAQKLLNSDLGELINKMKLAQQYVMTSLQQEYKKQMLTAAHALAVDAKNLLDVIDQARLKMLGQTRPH

As to `COc1cnc(-c2cc(N3CC(F)C3)nc3c2cnn3Cc2ccc3c(c2)CN(C2CCC(=O)NC2=O)C3=O)c(C)c1` (stereo not drawn) [Example 97, 3-(5-{[6-(3-fluoroazetidin-1-yl)-4-(5-methoxy-3-methylpyridin-2-yl)-1H-pyrazolo[3,4-b]pyridin-1-yl]methyl}-1-oxo-2,3-dihydro-1H-isoindol-2-yl)piperidine-2,6-dione], in the experiment with CAL-51 cells, the EC50 (commonly the concentration that produces a half-maximal response) worked out at 14.4 nM and the “CAL-51 Prolif Ymin” value is 38.61. Besides, on FAK, the DC50 was found to be 22.9 nM and the “FAK HiBiT Ymin” value was found to be 12.95.
The corresponding values for `O=C1CCC(N2Cc3cc(Cn4ncc5c(-c6ncc(C(F)(F)F)cc6Cl)cc(NC6CC6)nc54)ccc3C2=O)C(=O)N1` (stereo not drawn) [Example 98, 3-[5-({4-[3-chloro-5-(trifluoromethyl)pyridin-2-yl]-6-(cyclopropyl-amino)-1H-pyrazolo[3,4-b]pyridin-1-yl}methyl)-1-oxo-2,3-dihydro-1H-isoindol-2-yl]piperidine-2,6-dione] are 3.66 nM, 39.93, 24.4 nM and 32.32.
Turning to `CN(c1cc(-c2ncc(C(F)(F)F)cc2Cl)c2cnn(Cc3ccc4c(c3)CN([C@H]3CCC(=O)NC3=O)C4=O)c2n1)C1COC1` [Example 99, (3S)-3-[5-({4-[3-chloro-5-(trifluoromethyl)pyridin-2-yl]-6-[methyl(oxetan-3-yl)amino]-1H-pyrazolo[3,4-b]pyridin-1-yl}methyl)-1-oxo-2,3-dihydro-1H-isoindol-2-yl]piperidine-2,6-dione], in the experiment with CAL-51 cells, the EC50 turned out to be 117 nM and the “CAL-51 Prolif Ymin” value worked out at 36.78. On FAK, the DC50 is 25.3 nM and the “FAK HiBiT Ymin” value amounted to 13.33.
On to `O=C1CCC(N2Cc3cc(Cn4ncc5c(-c6ncc(F)cc6Cl)cc(N6CC[C@H](O)C6)nc54)ccc3C2=O)C(=O)N1` (stereo partly drawn) [Example 100, 3-(5-{[4-(3-chloro-5-fluoropyridin-2-yl)-6-[(3S)-3-hydroxypyrrolidin-1-yl]-1H-pyrazolo[3,4-b]pyridin-1-yl]methyl}-1-oxo-2,3-dihydro-1H-isoindol-2-yl)piperidine-2,6-dione], for which, in the experiment with CAL-51 cells, the 50% effective concentration (EC50) was determined as 13.4 nM and the “CAL-51 Prolif Ymin” value was found to be 29.27. On FAK, the DC50 came out at 26.8 nM and the “FAK HiBiT Ymin” value is given as 9.53.
With `C[C@]1(O)CCN(c2cc(-c3ncc(C(F)(F)F)cc3Cl)c3cnn(Cc4ccc5c(c4)CN([C@H]4CCC(=O)NC4=O)C5=O)c3n2)C1` [Example 102, (3S)-3-[5-({4-[3-chloro-5-(trifluoromethyl)pyridin-2-yl]-6-[(3S)-3-hydroxy-3-methylpyrrolidin-1-yl]-1H-pyrazolo[3,4-b]pyridin-1-yl}methyl)-1-oxo-2,3-dihydro-1H-isoindol-2-yl]piperidine-2,6-dione], in the experiment with CAL-51 cells, the EC50 worked out at 10.9 nM and the “CAL-51 Prolif Ymin” value turned out to be 35.36. In addition, on FAK, the DC50 is 29.6 nM and the “FAK HiBiT Ymin” value came to 12.65.
As to `CC(C)(O)c1ccc(-c2cc(N3CCC3)nc3c2cnn3Cc2ccc3c(c2)CN(C2CCC(=O)NC2=O)C3=O)c(Cl)c1` (stereo not drawn) [Example 105, 3-(5-{[6-(azetidin-1-yl)-4-[2-chloro-4-(2-hydroxypropan-2-yl)phenyl]-1H-pyrazolo[3,4-b]pyridin-1-yl]methyl}-1-oxo-2,3-dihydro-1H-isoindol-2-yl)piperidine-2,6-dione], in the experiment on CAL-51 cells, the EC50 came to 4.91 nM and the “CAL-51 Prolif Ymin” value is listed as 55.87. For the same compound, on FAK, the DC50 was determined as 35.7 nM and the “FAK HiBiT Ymin” value turned out to be 27.68.
`CN(c1cc(-c2ncc(C(F)(F)F)cc2Cl)c2cnn(Cc3ccc4c(c3)CN([C@H]3CCC(=O)NC3=O)C4=O)c2n1)[C@H]1C[C@](C)(O)C1` [Example 107, (3S)-3-[5-({4-[3-chloro-5-(trifluoromethyl)pyridin-2-yl]-6-{methyl[(1s,3r)-3-hydroxy-3-methylcyclobutyl]amino}-1H-pyrazolo[3,4-b]pyridin-1-yl}methyl)-1-oxo-2,3-dihydro-1H-isoindol-2-yl]piperidine-2,6-dione]: in the experiment with CAL-51 cells, the EC50 was 8.44 nM and the “CAL-51 Prolif Ymin” value is 44.59. Moreover, on FAK, the DC50 was found to be 38.3 nM and the “FAK HiBiT Ymin” value is 18.14.
As to `Cc1cc(C(F)(F)F)cnc1-c1cc(N2CC[C@H](O)C2)nc2c1cnn2Cc1ccc2c(c1)CN([C@H]1CCC(=O)NC1=O)C2=O` [Example 110, (3S)-3-[5-({6-[(3S)-3-hydroxypyrrolidin-1-yl]-4-[3-methyl-5-(trifluoromethyl)pyridin-2-yl]-1H-pyrazolo[3,4-b]pyridin-1-yl}methyl)-1-oxo-2,3-dihydro-1H-isoindol-2-yl]piperidine-2,6-dione], in the experiment on CAL-51 cells, the concentration giving a half-maximal response (EC50) came to 186 nM and the “CAL-51 Prolif Ymin” value was found to be 10.20. Further, at FAK, the DC50 was determined as 45.3 nM and the “FAK HiBiT Ymin” value was found to be 14.00.
For `CCOc1ccc(Cl)c(-c2cc(N3CC(F)C3)nc3c2cnn3Cc2ccc3c(c2)CN([C@H]2CCC(=O)NC2=O)C3=O)n1` [Example 111, (3S)-3-(5-{[4-(3-chloro-6-ethoxypyridin-2-yl)-6-(3-fluoroazetidin-1-yl)-1H-pyrazolo[3,4-b]pyridin-1-yl]methyl}-1-oxo-2,3-dihydro-1H-isoindol-2-yl)piperidine-2,6-dione], in the experiment on CAL-51 cells, the concentration for a half-maximal effect (EC50) turned out to be 551 nM and the “CAL-51 Prolif Ymin” value came to 60.03. Besides, on FAK, the DC50 is 45.8 nM and the “FAK HiBiT Ymin” value was determined as 73.08.
The corresponding values for `O=C1CC[C@H](N2Cc3cc(Cn4ncc5c(-c6ncc(C(F)(F)F)cc6Cl)cc(N6CC(O)C6)nc54)ccc3C2=O)C(=O)N1` [Example 113, (3S)-3-[5-({4-[3-chloro-5-(trifluoromethyl)pyridin-2-yl]-6-(3-hydroxyazetidin-1-yl)-1H-pyrazolo[3,4-b]pyridin-1-yl}methyl)-1-oxo-2,3-dihydro-1H-isoindol-2-yl]piperidine-2,6-dione] are 9.28 nM, 38.05, 51.8 nM and 21.00.
The corresponding values for `O=C1CCC(N2Cc3cc(Cn4ncc5c(-c6ncc(F)cc6Cl)cc(N6CC[C@@H](O)C6)nc54)ccc3C2=O)C(=O)N1` (stereo partly drawn) [Example 114, 3-(5-{[4-(3-chloro-5-fluoropyridin-2-yl)-6-[(3R)-3-hydroxypyrrolidin-1-yl]-1H-pyrazolo[3,4-b]pyridin-1-yl]methyl}-1-oxo-2,3-dihydro-1H-isoindol-2-yl)piperidine-2,6-dione] are 35 nM, 40.82, 55.7 nM and 14.15.
The corresponding values for `C[C@]1(O)CCN(c2cc(-c3ccc(C#N)cc3F)c3cnn(Cc4ccc5c(c4)CN(C4CCC(=O)NC4=O)C5=O)c3n2)C1` (stereo partly drawn) [Example 115, 4-(1-{[2-(2,6-dioxopiperidin-3-yl)-1-oxo-2,3-dihydro-1H-isoindol-5-yl]methyl}-6-[(3S)-3-hydroxy-3-methylpyrrolidin-1-yl]-1H-pyrazolo[3,4-b]pyridin-4-yl)-3-fluorobenzonitrile] are 118 nM, 59.97, 65.3 nM and 53.22.
